Patent US20160377571A1, “BIOSENSOR” (University of Leeds, priority 2007, published 2016)

Legend:
[1] = AC voltammetry (capacitance-potential scans) of DOPC monolayer on hanging mercury drop electrode (HMDE) with analyte in electrolyte
Method: The HMDE was based on using a capillary with a diameter of 0.1 mm so as to provide a surface area for the mercury drop about the same as the surface area of the mercury in the electrode in accordance with the invention.
Experiments were performed in 0.1M Kcl.

[2] = for response of the electrode of the invention to the test compound (depression of capacitance peaks): 0.5 μmol dm^−3 in 0.1M KCl
Method: The HMDE and the electrode of the invention were compared side-by-side in a static cell configuration. All experiments were carried out in 0.1 M potassium chloride solution. Measurements were taken at 75 Hz between −0.4 to −1.15 V with 4.95 mV rms at a scan rate of 5 mV
This Example compares a HMDE electrode with an electrode as produced in accordance with Example 3, both coated with a monolayer film of 1,2-dioleoyl-sn-glycero-3-phosphocholine (DOPC), new layers of which were deposited between consecutive scans. Experiments were performed in 0.1M Kcl. A negative going ‘forward’ potential scan was performed between −0.4 V and −1.15 V, and then followed immediately by a positive going ‘reverse’ scan from −1.15 V to −0.4 V with 4.95 mV rms at a scan rate of 5 mVs^−1.

[3] = Pt/Hg electrode, DOPC monolayer, compared with HMDE

sensitivity converted to ppb ([2]; assuming a density for the solution of 1 g per ml)	SMILES	response of the HMDE to the test compound ([1]; 0.5 μmol dm^−3 in 0.1M KCl)	response of the electrode of the invention to the test compound (depression of capacitance peaks) [2, 3]	response of the HMDE to the test compound ([1]; 5 μmol dm^−3)	response of the electrode of the invention to the test compound ([2]; 5 μmol dm^−3, Pt/Hg electrode, DOPC monolayer, compared with HMDE)
–	CC(CN1c2ccccc2Sc2ccccc21)N(C)C (stereo not drawn) [promethazine]	show response	stronger response (greater depression of the peaks)	–	–
–	NC(=O)c1cc[n+](COC[n+]2ccccc2C=NO)cc1 [H16]	–	far greater response	large response	slightly larger response
approximately 18 ppb	CN(C)CCCN1c2ccccc2Sc2ccc(Cl)cc21 [chlorpromazine]	–	–	–	–
